Patent publication US20120172384A1, “HETEROCYCLYLAMINOPYRIMIDINES AS KINASE INHIBITORS” (priority 2009, published 2012)
Where “and” joins values, the source holds several entries; their conditions need not be identical. Identical values can stand only once.

Columns and labels:
[1] = target: T1, ZAP-70 (Homo sapiens, UniProt P43403); test: ZAP-70 kinobeads assay; format: binding; details: cell lysate, dot blot with ZAP-70 antibody
T1 construct: endogenous in cells
T1 sequence (P43403 1-619): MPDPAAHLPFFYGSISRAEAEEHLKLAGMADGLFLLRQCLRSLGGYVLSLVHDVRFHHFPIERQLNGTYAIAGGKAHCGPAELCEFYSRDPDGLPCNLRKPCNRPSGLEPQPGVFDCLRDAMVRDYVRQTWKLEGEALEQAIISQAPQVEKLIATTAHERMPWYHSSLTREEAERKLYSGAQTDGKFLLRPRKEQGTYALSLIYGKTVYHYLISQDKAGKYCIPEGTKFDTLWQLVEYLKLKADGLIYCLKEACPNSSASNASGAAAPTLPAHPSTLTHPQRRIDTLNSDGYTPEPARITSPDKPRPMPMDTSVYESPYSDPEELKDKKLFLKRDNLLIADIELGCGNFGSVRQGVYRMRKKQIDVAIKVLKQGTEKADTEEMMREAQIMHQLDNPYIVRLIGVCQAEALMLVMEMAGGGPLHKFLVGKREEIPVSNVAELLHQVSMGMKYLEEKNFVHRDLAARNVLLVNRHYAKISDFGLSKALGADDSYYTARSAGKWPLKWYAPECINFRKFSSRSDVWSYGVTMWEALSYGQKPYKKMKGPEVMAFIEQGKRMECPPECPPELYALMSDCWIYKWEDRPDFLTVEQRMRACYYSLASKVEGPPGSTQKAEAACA
Description: The compounds of the present invention as described in the previous examples were tested in the ZAP-70 kinobeads assay as described (EP-A 1862802 and WO-A 2007/137867). Briefly, test compounds (at various concentrations) and the affinity matrix with the immobilized aminopyrido-pyrimidine ligand 24 are added to cell lysate aliquots and allowed to bind to the proteins in the lysate sample. After the incubation time the beads with captured proteins are separated from the lysate. Bound proteins are then eluted and the presence ZAP-70 is detected and quantified using a specific antibody in a dot blot procedure and the Odyssey infrared detection system.

[2] = target: T2, JAK3 (Homo sapiens, UniProt P52333); test: JAK3 kinobeads assay; format: binding; details: cell lysate, dot blot with JAK3 specific antibody
T2 construct: endogenous in cells
T2 sequence (P52333 1-1124): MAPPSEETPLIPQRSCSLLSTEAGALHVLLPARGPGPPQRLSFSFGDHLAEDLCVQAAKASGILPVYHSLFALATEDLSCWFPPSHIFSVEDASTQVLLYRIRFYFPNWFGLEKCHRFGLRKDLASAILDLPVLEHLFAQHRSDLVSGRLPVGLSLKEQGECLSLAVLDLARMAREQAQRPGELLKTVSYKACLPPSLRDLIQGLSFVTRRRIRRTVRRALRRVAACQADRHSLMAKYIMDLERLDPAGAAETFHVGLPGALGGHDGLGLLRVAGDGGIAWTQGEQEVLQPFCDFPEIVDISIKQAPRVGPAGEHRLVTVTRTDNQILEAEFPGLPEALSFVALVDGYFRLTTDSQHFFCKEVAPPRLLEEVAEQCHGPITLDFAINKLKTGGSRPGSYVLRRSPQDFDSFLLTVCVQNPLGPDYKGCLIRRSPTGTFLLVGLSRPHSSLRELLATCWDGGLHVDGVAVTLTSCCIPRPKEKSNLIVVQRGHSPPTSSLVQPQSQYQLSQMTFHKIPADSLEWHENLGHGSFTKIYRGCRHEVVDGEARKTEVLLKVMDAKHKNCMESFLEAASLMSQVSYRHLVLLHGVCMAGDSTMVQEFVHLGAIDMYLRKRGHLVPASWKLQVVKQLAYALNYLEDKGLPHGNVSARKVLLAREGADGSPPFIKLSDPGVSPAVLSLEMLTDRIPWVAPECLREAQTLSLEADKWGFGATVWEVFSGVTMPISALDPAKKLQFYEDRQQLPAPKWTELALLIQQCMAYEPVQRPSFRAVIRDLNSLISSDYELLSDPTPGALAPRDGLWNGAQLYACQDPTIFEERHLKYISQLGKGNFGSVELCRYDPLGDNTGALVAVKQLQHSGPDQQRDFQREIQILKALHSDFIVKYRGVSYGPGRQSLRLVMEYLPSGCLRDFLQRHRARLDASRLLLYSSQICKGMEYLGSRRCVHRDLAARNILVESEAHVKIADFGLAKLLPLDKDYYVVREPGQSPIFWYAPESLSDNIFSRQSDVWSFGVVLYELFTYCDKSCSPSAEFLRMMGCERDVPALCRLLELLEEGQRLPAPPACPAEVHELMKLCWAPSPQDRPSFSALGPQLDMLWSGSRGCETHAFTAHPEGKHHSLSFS
Method in brief: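 In this competition pulldown, test compounds at various concentrations were incubated in cell lysate together with beads carrying an immobilized aminopyrido-pyrimidine ligand. Bead-bound proteins were eluted, and JAK3 was quantified by dot blot with a JAK3-specific antibody and infrared detection.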

Compound | IC50 [1] | IC50 [2]
COc1ccc(Nc2nc(Nc3ccon3)ncc2F)c(NS(C)(=O)=O)c1 [Example 36, N-(2-(5-fluoro-2-(isoxazol-3-ylamino)pyrimidin-4-ylamino)-5-methoxyphenyl)methanesulfonamide] | 1000 to 10000 nM | 100 to 1000 nM
COc1ccc(Nc2nc(Nc3cn[nH]c3)ncc2F)c(NS(C)(=O)=O)c1 [Example 24, N-(2-(2-(1H-pyrazol-4-ylamino)-5-fluoropyrimidin-4-ylamino)-5-methoxyphenyl)methanesulfonamide] | 100 to 1000 nM | ≤ 100 nM
Cn1ccc(Nc2ncc(Cl)c(Nc3ccccc3NS(C)(=O)=O)n2)n1 [Example 16, N-(2-(5-chloro-2-(1-methyl-1H-pyrazol-3-ylamino)pyrimidin-4-ylamino)phenyl)methanesulfonamide] | 100 to 1000 nM | ≤ 100 nM
CCn1ncc(Nc2ncc(Cl)c(Nc3ccc(OC)cc3NS(C)(=O)=O)n2)c1C [Example 77, N-(2-((5-chloro-2-((1-ethyl-5-methyl-1H-pyrazol-4-yl)amino)pyrimidin-4-yl)amino)-5-methoxyphenyl)methanesulfonamide] | ≤ 100 nM | 100 to 1000 nM
Cc1cc(Nc2ncc(Cl)c(Nc3ccccc3NS(C)(=O)=O)n2)nn1C [Example 39, N-(2-(5-chloro-2-(1,5-dimethyl-1H-pyrazol-3-ylamino)pyrimidin-4-ylamino)phenyl)methanesulfonamide] | 100 to 1000 nM | ≤ 100 nM
COc1ccc(Nc2nc(Nc3ccnn3C)ncc2Cl)c(NS(C)(=O)=O)c1 [Example 5, N-(2-(5-chloro-2-(1-methyl-1H-pyrazol-5-ylamino)pyrimidin-4-ylamino)-5-methoxyphenyl)methanesulfonamide] | ≤ 100 nM | 100 to 1000 nM
CS(=O)(=O)Nc1ccccc1Nc1nc(Nc2cn[nH]c2)ncc1F [Example 23, N-(2-(2-(1H-pyrazol-4-ylamino)-5-fluoropyrimidin-4-ylamino)phenyl)methanesulfonamide] | 100 to 1000 nM | ≤ 100 nM
Cn1cc(Nc2ncc(F)c(Nc3ccccc3NS(C)(=O)=O)n2)cn1 [Example 22, N-(2-(5-fluoro-2-(1-methyl-1H-pyrazol-4-ylamino)pyrimidin-4-ylamino)phenyl)methanesulfonamide] | 100 to 1000 nM | ≤ 100 nM
COc1ccc(Nc2nc(Nc3ccn(C)n3)ncc2Cl)c(NS(C)(=O)=O)c1 [Example 4, N-(2-(5-chloro-2-(1-methyl-1H-pyrazol-3-ylamino)pyrimidin-4-ylamino)-5-methoxyphenyl)methanesulfonamide] | 100 to 1000 nM | 100 to 1000 nM and ≤ 100 nM
Cn1ccc(Nc2ncc(Br)c(Nc3ccccc3NS(C)(=O)=O)n2)n1 [Example 43, N-(2-((5-bromo-2-((1-methyl-1H-pyrazol-3-yl)amino)pyrimidin-4-yl)amino)phenyl)methanesulfonamide] | 100 to 1000 nM | ≤ 100 nM
COc1ccc(Nc2nc(Nc3c(C)nn(C)c3C)ncc2Cl)c(NS(C)(=O)=O)c1 [Example 13, N-(2-(5-chloro-2-(1,3,5-trimethyl-1H-pyrazol-4-ylamino)pyrimidin-4-ylamino)-5-methoxyphenyl)methanesulfonamide] | 100 to 1000 nM | 1000 to 10000 nM
COc1ccc(Nc2nc(Nc3cc(C)nn3CCO)ncc2Cl)c(NS(C)(=O)=O)c1 [Example 94, N-(2-((5-chloro-2-((1-(2-hydroxyethyl)-3-methyl-1H-pyrazol-5-yl)amino)pyrimidin-4-yl)amino)-5-methoxyphenyl)methanesulfonamide] | 100 to 1000 nM | 1000 to 10000 nM
Cn1cc(Nc2ncc(Br)c(Nc3ccccc3NS(C)(=O)=O)n2)cn1 [Example 41, N-(2-(5-bromo-2-(1-methyl-1H-pyrazol-4-ylamino)pyrimidin-4-ylamino)phenyl)methanesulfonamide] | 100 to 1000 nM | ≤ 100 nM
CCn1ccc(Nc2ncc(Cl)c(Nc3ccccc3NS(C)(=O)=O)n2)n1 [Example 42, N-(2-(5-chloro-2-(1-ethyl-1H-pyrazol-3-ylamino)pyrimidin-4-ylamino)phenyl)methanesulfonamide] | 100 to 1000 nM | ≤ 100 nM
Cn1ccc(Nc2ncc(F)c(Nc3ccccc3NS(C)(=O)=O)n2)n1 [Example 1, N-(2-(5-fluoro-2-(1-methyl-1H-pyrazol-3-ylamino)pyrimidin-4-ylamino)phenyl)methanesulfonamide] | 1000 to 10000 nM | 100 to 1000 nM
COc1ccc(Nc2nc(Nc3cnn(C)c3)ncc2Cl)c(NS(C)(=O)=O)c1 [Example 6, N-(2-(5-chloro-2-(1-methyl-1H-pyrazol-4-ylamino)pyrimidin-4-ylamino)-5-methoxyphenyl)methanesulfonamide] | ≤ 100 nM | ≤ 100 nM
COCCn1nc(C)cc1Nc1ncc(Cl)c(Nc2ccc(OC)cc2NS(C)(=O)=O)n1 [Example 96, N-(2-((5-chloro-2-((1-(2-methoxyethyl)-3-methyl-1H-pyrazol-5-yl)amino)pyrimidin-4-yl)amino)-5-methoxyphenyl)methanesulfonamide] | 100 to 1000 nM | 1000 to 10000 nM
COc1ccc(Nc2nc(Nc3ccn(C)n3)ncc2F)c(NS(C)(=O)=O)c1 [Example 7, N-(2-(5-fluoro-2-(1-methyl-1H-pyrazol-3-ylamino)pyrimidin-4-ylamino)-5-methoxyphenyl)methanesulfonamide] | 100 to 1000 nM | 100 to 1000 nM
Cc1nn(C)cc1Nc1ncc(Cl)c(Nc2ccccc2NS(C)(=O)=O)n1 [Example 35, N-(2-(5-chloro-2-(1,3-dimethyl-1H-pyrazol-4-ylamino)pyrimidin-4-ylamino)phenyl)methanesulfonamide] | ≤ 100 nM | ≤ 100 nM
COc1ccc(Nc2nc(Nc3cnn(C)c3)ncc2F)c(NS(C)(=O)=O)c1 [Example 21, N-(2-(5-fluoro-2-(1-methyl-1H-pyrazol-4-ylamino)pyrimidin-4-ylamino)-5-methoxyphenyl)methanesulfonamide] | 100 to 1000 nM | ≤ 100 nM
COc1ccc(Nc2nc(Nc3nonc3C)ncc2Cl)c(NS(C)(=O)=O)c1 [Example 31, N-(2-(5-chloro-2-(4-methyl-1,2,5-oxadiazol-3-ylamino)pyrimidin-4-ylamino)-5-methoxyphenyl)methanesulfonamide] | 1000 to 10000 nM | 1000 to 10000 nM
CCn1nc(C)cc1Nc1ncc(Cl)c(Nc2ccc(OC)cc2NS(C)(=O)=O)n1 [Example 12, N-(2-(5-chloro-2-(1-ethyl-3-methyl-1H-pyrazol-5-ylamino)pyrimidin-4-ylamino)-5-methoxyphenyl)methanesulfonamide] | ≤ 100 nM | 100 to 1000 nM
CCn1cc(Nc2ncc(Cl)c(Nc3ccccc3NS(C)(=O)=O)n2)c(C)n1 [Example 33, N-(2-(5-chloro-2-(1-ethyl-3-methyl-M-pyrazol-4-ylamino)pyrimidin-4-ylamino)phenyl)methanesulfonamide] | 100 to 1000 nM | ≤ 100 nM
